Tests used:
[1] = system: diamondback moth (Plutella xylostella) and cabbage cluster caterpillar (Crocidolomia pavonana) known to be resistant to chlorantraniliprole; test: Example 5 cabbage plot study, yield under chlorantraniliprole-resistant pest infestation; assay type: in vivo, Plutella xylostella; Crocidolomia pavonana (on cabbage); settings: rate 30.9 g/ha; cabbage plots
Experimental: (§1) A study was conducted to determine the effect that a synergistic weight ratio of Bacillus thuringiensis subsp. kurstaki and Bacillus thuringiensis subsp. aizawai would have on insect species with known resistance to the commonly used insecticide, chlorantraniliprole. Prevathon™ (available from DuPont™) is a 5% suspension concentrate of chlorantraniliprole and was used as the source of chlorantraniliprole in the following two studies. Sympatico™ emulsifiable suspension concentrate (available from Valent BioSciences Corporation) was used as the source of Bacillus thuringiensis subsp. aizawai and Bacillus thuringiensis kurstaki. Sympatico™ contains about a 60:40 weight ratio of Bacillus thuringiensis subsp. kurstaki fermentation solids, spores and toxins to Bacillus thuringiensis subsp. aizawai fermentation solids, spores and toxins. The plots were planted with cabbage and naturally infested with populations of diamondback moth (Plutella xylostella) and cabbage cluster caterpillar (Crocidolomia pavonana) that were known to be resistant to chlorantraniliprole.

[2] = system: insect species with known resistance to chlorantraniliprole; test: Example 6 plot study, yield with insect species resistant to chlorantraniliprole; assay type: in vivo; settings: rate 30.9 g a.i/ha
Experimental: as §1
Another study was conducted to determine the effect that a synergistic weight ratio of Bacillus thuringiensis subsp. kurstaki and Bacillus thuringiensis subsp. aizawai would have on insect species with known resistance to the commonly used insecticide, chlorantraniliprole.

Work on `CNC(=O)c1cc(Cl)cc(C)c1NC(=O)c1cc(Br)nn1-c1ncccc1Cl` [Chlorantraniliprole] yielded a Yield [1] of 67.0 kg/plot and a Yield [2] of 88.3 kg/plot.

From patent US20190008160A1, “BACILLUS THURINGIENSIS SUBSP. KURSTAKI AND BACILLUS THURINGIENSIS SUBSP. AIZAWAI COMBINATION FORMULATIONS” (Valent BioSciences Corporation, priority 2015, published 2019)
